Results published in patent US11366102B2, “Spectographic metabolite-signature for identifying a subject's susceptibility to drugs” (Olaris, Inc., priority 2018, dated 2022).

Key:
[1] = system: adenoid cystic carcinomas of the salivary gland; details: despite increased expression of c-kit; cited from earlier work
[2] = biological target: T1, CYP2A6 (Homo sapiens, UniProt P11509); details: off-target effect; cited from earlier work
T1 sequence (P11509 1-494): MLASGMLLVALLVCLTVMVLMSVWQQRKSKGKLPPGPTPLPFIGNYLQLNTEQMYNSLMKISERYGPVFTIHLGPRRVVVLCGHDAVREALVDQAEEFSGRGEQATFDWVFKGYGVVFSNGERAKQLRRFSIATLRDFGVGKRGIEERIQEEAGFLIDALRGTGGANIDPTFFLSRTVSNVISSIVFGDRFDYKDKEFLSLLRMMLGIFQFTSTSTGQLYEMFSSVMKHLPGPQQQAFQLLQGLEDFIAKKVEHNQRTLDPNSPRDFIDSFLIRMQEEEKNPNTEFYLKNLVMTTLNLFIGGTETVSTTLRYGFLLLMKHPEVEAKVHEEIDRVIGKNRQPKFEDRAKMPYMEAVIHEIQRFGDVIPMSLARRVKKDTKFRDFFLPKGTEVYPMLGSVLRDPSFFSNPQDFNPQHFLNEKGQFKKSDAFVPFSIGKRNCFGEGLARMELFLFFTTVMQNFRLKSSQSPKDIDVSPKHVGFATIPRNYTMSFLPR

[3] = biological target: CYP2C19 (Homo sapiens, UniProt P33261); details: off-target effect; cited from earlier work
[4] = system: ER+/HER2− metastatic BC; experiment: Retrospective study of metastatic BC patients treated with CDK4/6 inhibitors, classified R or NR by change in sum of diameters of target tumors after 6 months, with overall survival; type: in vivo, human; details: for Patients within the NR group / Number of non-responders (NR): at least a 20% increase in the sum of diameters of target tumors after 6 months; for Patients within the NR group: 10 NR of 24 patients; for Number of non-responders (NR) / Number of responders (R): samples separated by inhibitor; for Number of responders (R): at least a 30% decrease in the sum of diameters of target tumors after 6 months of treatment
Description: Here we describe a retrospective study analyzing plasma-based metabolites from a baseline (BL) sample and after 2-months (2M) of treatment of 24 women with ER+/HER2-− metastatic BC treated with CDK4/6 inhibitors, palbociclib or ribociclib.

Sequence of CYP2C19 (P33261 whole entry): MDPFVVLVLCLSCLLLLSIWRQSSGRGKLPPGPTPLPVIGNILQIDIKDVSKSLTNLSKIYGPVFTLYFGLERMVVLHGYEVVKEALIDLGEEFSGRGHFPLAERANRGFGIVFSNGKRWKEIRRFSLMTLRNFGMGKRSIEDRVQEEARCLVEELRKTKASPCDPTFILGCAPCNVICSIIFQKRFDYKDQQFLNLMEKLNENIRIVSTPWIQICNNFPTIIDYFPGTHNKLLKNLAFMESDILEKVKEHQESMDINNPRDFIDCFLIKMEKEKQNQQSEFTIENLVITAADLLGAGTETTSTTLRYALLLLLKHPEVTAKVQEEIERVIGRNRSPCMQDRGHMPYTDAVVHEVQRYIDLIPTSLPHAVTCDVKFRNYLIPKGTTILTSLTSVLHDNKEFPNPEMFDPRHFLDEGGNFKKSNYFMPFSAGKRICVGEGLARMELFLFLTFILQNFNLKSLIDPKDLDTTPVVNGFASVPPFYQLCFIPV

Row | SMILES | Effect on adenoid cystic carcinomas of the salivary gland [1] | Inhibition of CYP2A6 [2] | Inhibition of CYP2C19 [3] | Patients within the NR group [4] [patients] | Number of non-responders (NR) [4] | Number of responders (R) [4]
1 | Cc1ccc(NC(=O)c2ccc(CN3CCN(C)CC3)cc2)cc1Nc1nccc(-c2cccnc2)n1 [imatinib] | no effect | – | – | – | – | –
2 | N#Cc1ccc(C(c2ccc(C#N)cc2)n2cncn2)cc1 [letrozole] | – | inhibits | inhibits | – | – | –
3 | CC(=O)c1c(C)c2cnc(Nc3ccc(N4CCNCC4)cn3)nc2n(C2CCCC2)c1=O [palbociclib] | – | – | – | 3 | 3 | 7
4 | CN(C)C(=O)c1cc2cnc(Nc3ccc(N4CCNCC4)cn3)nc2n1C1CCCC1 [ribociclib] | – | – | – | 7 | 6 | 8
